This is an account of results in patent publication US6878388B1, “Vanadium compounds for treating proliferative cell disorders” (Parker Hughes Institute, priority 2000, dated 2005).

Assay [1] has as its system MDA-MB-231 breast cancer cells. As to the kind of experiment: In situ detection of apoptosis (TdT-mediated dUTP nick-end labeling), MDA-MB-231. The assay is classed as cell-based, human. The following applies: MDA-MB-231 cells, dUTP-FITC labeling; read-out: apoptotic EC50. As for the experimental part: (§1) Apoptosis was detected using an in situ cell death detection kit (Boehringer Mannheim Corp., Indianapolis, Ind.) as described previously (Albini et al., J. Cell Biol., 105: 1867-1872, 1987; Huang et al., J Biol Chem., 272: 2927-2935, 1997). Cells were incubated with [VO(SO4)(Me2-Phen)2] for 48 hours at 37° C., fixed, permeabilized, incubated with the reaction mixture containing terminal deoxynucleotidyl transferase (TdT) and fluorescein isothiocyanate (FITC)-conjugated dUTP and counterstained with propidium iodide. Cells were transferred to slides and viewed with confocal laser scanning microscope (Bio-Rad MRC 1024) mounted on a Nikon Eclipse E800 series upright microscope as previously reported (Narla et al., Supra).
(§2) Administration of [VO(SO4)(Me2-Phen)2] to cells induced apoptotic or programmed cell death as determined using the TdT-mediated dUTP nick-end labeling of exposed 3′-OH termini of DNA with dUTP-FITC.

The subject of assay [2] is MCF-7 breast cancer cells. As to the kind of experiment: MTT cytotoxicity assay, MCF-7. Format: cell-based, human. The following applies: MCF-7 cells, 48 h incubation, 3 independent experiments, read-out: IC50 (mean ± SE). On the procedure: (§3) Human brain tumor cells lines U87 MG (Cat.# HTB-14), U118 MG (Cat. # HTB-15), U138 (Cat # HTB-16), U373 MG (CAT. # HTB-17), and T98G (Cat. # CRL-1690) and breast cancer cell lines BT-20 (Cat # HTB-19), MDA-MB-231 (Cat # HTB-26), MDA-MB-361 (Cat # HTB-27), and MCF-7 (Cat # HTB-22) were obtained from American Type Culture Collection (ATCC, Rockville, Md.) and maintained as continuous cell lines in Dulbecco's modified Eagles's medium (U87, U118, U138, U373, T98 and BT-20) or Leibovitz's L-15 medium (MDA-MB-231 and MDA-MB-361). All media were supplemented with 10% fetal calf serum (FCS), 4 mM glutamine, 100 U/ml penicillin G and […] streptomycin sulfate. All tissue culture reagents were obtained from Life Technologies Inc. (GIBCO-BRL, Gaithersburg, Md.).
(§4) The cytotoxicity of [VO(SO4)(Me2-Phen)2] against human cancer cell lines was analyzed using the MTT (3-[4,5-dimethylthiazol-2-yl]-2,5-diphenyl tetrazolium bromide) assay (Boehringer Mannheim Corp., Indianapolis, Ind.) as described previously (Narla et al., Clin Cancer Res., 4: 1405-1414, 1998). […] The absorbance at 540 nm (a reference wavelength of 690 nm was used) of the solution in each well was measured using a microplate reader (Labsystems). The percent survival and the IC50 values were calculated using Graphpad Prism v2.0 (Graphpad Software, Inc., San Diego, Calif.) as described previously (Narla et al., Supra). […]
(Formazan colour is commonly taken as a measure of viable cells.)

The subject of assay [3] is U118 human glioblastoma cells. Nature of the assay: MTT cytotoxicity assay, U118. The assay is classed as cell-based. The following applies: 48 h incubation, 3 independent experiments, read-out: IC50 (mean ± SE). On the procedure: as §3, §4
A further assay has as its system U87 glioblastoma cells. As to the kind of experiment: In situ detection of apoptosis (TdT-mediated dUTP nick-end labeling), U87. The following applies: dUTP-FITC labeling, read-out: apoptotic EC50. Format: cell-based, human. As for the experimental part:
as §1, §2

Assay [4] concerns MDA-MB-361 breast cancer cells. As to the kind of experiment: MTT cytotoxicity assay, MDA-MB-361. The assay is classed as cell-based, human. The following applies: MDA-MB-361 cells, 48 h incubation, 3 independent experiments, read-out: IC50 (mean ± SE). As for the experimental part:
as §3, §4

Assay [5] deals with T98 human glioblastoma cells. As to the kind of experiment: MTT cytotoxicity assay, T98. Format: cell-based. The following applies: 48 h incubation, 3 independent experiments, read-out: IC50 (mean ± SE). As for the experimental part:
as §3, §4

Assay [6] concerns BT-20 breast cancer cells. As to the kind of experiment: MTT cytotoxicity assay, BT-20. The following applies: BT-20 cells, 48 h incubation, 3 independent experiments, read-out: IC50 (mean ± SE). Format: cell-based, human. On the procedure:
as §3, §4

Molecules are shown by their SMILES.

The term EC50 denotes the concentration that produces a half-maximal response. The IC50 is the point on the concentration scale where inhibition reaches its midpoint. As to `Cc1ccnc2c1ccc1c(C)ccnc12.Cc1ccnc2c1ccc1c(C)ccnc12.O=S(=O)([O-])[O-].[O]=[V+2]` [[VO(SO4)(Me2-Phen)2], bis(4,7-dimethyl-1,10-phenanthroline) sulfatooxovanadium (IV)], the figures for the EC50 (in assay [1]; in the assay with U87 glioblastoma cells) were 2.1 ± 0.4 µM and 4.2 ± 0.9 µM, respectively. Also, the IC50 was 2.3 ± 0.4 µM in assay [2]; 0.82 ± 0.1 µM in assay [3]; 1.9 ± 0.5 µM in assay [4]; 3.9 ± 0.5 µM in assay [5]; 1.6 ± 0.7 µM in assay [6].
